Reference: patent US10494355B2, “Oxadiazole amine derivative compounds as histone deacetylase 6 inhibitor, and the pharmaceutical composition comprising the same” (Chong Kun Dang Pharmaceutical Corp., priority 2015, dated 2019)

Assays:
[1] = molecular target: T1, human recombinant HDAC6 (Homo sapiens, UniProt Q9UBN7); assay: HDAC6 enzyme activity inhibition assay (HDAC Fluorimetric Drug Discovery Kit); assay type: biochemical; settings: 30° C. 60 minutes
T1 construct: purchased Calbiochem 382180
T1 sequence (Q9UBN7 1-1215): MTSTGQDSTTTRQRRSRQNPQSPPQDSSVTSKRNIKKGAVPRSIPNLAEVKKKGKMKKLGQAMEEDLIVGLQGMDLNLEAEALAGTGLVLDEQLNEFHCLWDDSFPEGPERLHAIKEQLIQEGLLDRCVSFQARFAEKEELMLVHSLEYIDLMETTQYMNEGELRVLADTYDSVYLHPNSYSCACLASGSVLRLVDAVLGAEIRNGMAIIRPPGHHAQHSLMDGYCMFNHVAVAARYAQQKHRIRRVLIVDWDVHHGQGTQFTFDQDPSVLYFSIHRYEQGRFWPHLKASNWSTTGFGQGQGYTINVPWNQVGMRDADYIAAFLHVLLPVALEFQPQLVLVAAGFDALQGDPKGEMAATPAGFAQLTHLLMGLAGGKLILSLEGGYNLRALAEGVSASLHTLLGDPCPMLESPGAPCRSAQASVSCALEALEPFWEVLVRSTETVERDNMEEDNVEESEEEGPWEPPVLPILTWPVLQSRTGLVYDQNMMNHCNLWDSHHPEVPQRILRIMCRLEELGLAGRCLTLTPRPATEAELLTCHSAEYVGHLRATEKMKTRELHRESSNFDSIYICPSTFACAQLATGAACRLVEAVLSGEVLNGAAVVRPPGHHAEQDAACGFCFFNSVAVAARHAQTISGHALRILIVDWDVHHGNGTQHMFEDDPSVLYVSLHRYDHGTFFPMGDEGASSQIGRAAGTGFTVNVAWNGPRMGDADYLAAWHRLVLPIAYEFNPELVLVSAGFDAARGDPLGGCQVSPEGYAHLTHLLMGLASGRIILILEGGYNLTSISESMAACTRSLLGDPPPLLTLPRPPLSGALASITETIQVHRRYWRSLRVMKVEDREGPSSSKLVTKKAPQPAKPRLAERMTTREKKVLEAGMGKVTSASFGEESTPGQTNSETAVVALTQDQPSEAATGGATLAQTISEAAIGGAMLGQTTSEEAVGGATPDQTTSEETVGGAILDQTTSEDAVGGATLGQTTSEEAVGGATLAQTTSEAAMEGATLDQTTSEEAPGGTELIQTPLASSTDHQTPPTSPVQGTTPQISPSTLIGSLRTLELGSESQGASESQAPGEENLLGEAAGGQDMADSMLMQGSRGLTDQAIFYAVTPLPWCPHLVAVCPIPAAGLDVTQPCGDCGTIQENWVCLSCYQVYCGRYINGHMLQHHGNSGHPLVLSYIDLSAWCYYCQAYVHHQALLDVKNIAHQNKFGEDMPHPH
Procedure, shortened: (§1)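 First, compound in 5-fold dilution steps is combined with 0.3 μg enzyme and 10 μM Fluor de Lys-SIRT1 substrate. After 60 min at 30° C, developer is added for 30 min. Fluorescence at Ex 360/Em 460 then gives IC50 values.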

[2] = molecular target: T2, human recombinant HDAC1 (Homo sapiens, UniProt Q13547); assay: HDAC1 enzyme activity inhibition assay (HDAC Fluorimetric Drug Discovery Kit); assay type: biochemical; settings: human recombinant HDAC1, 10 μM substrate, 30° C. 60 minutes
T2 construct: purchased Enzo Life Science BML-SE456
Procedure, shortened: as §1

T2 sequence (Q13547 whole entry): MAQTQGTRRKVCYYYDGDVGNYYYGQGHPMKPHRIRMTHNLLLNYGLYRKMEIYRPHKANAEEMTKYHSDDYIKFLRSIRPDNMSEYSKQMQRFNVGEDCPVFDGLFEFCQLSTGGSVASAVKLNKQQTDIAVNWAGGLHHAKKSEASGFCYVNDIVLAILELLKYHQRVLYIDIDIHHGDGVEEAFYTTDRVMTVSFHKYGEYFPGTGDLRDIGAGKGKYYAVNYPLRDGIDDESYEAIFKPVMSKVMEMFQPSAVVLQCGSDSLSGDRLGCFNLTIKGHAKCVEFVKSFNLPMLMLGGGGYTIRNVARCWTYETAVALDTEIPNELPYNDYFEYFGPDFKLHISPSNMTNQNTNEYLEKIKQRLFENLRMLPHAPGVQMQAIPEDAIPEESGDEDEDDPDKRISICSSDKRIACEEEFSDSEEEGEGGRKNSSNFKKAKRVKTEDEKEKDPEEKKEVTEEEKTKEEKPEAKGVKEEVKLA

SMILES	IC50 [1]	IC50 [2]
Fc1ccc(C2(Nc3ncc(-c4nnc(C(F)(F)F)o4)cn3)CC2)cc1 [Compound 1712, N-(1-(4-fluorophenyl)cyclopropyl)-5-(5-(trifluoromethyl)-1,3,4-oxadiazol-2-yl)pyrimidin-2-amine]	100 nM	> 10000 nM
COc1ccc(C2(Nc3ncc(-c4nnc(C(F)F)o4)cn3)CCC2)cc1 [Compound 1603, 5-(5-(difluoromethyl)-1,3,4-oxadiazol-2-yl)-N-(1-(4-methoxyphenyl)cyclobutyl)pyrimidin-2-amine]	50 nM	> 10000 nM
Fc1cccc(C2(Nc3ncc(-c4nnc(C(F)F)o4)cn3)CCC2)c1 [Compound 1607, 5-(5-(difluoromethyl)-1,3,4-oxadiazol-2-yl)-N-(1-(3-fluorophenyl)cyclobutyl)pyrimidin-2-amine]	32 nM	> 10000 nM
Fc1cccc(C2(Nc3ncc(-c4nnc(C(F)F)o4)cn3)CC2)c1 [Compound 1713, 5-(5-(difluoromethyl)-1,3,4-oxadiazol-2-yl)-N-(1-(3-fluorophenyl)cyclopropyl)pyrimidin-2-amine]	33 nM	> 10000 nM
Cc1ccccc1C1(Nc2ncc(-c3nnc(C(F)F)o3)cn2)CCC1 [Compound 1671, 5-(5-(difluoromethyl)-1,3,4-oxadiazol-2-yl)-N-(1-(o-tolyl)cyclobutyl)pyrimidin-2-amine]	44 nM	> 10000 nM
